Data taken from patent US8143402B2, “Polymorphic forms of a macrocyclic inhibitor of HCV” (Tibotec Pharmaceuticals Ltd., priority 2007, dated 2012).
Where two headings read alike, the source gives them in different places.

Experiments:
Assay type in all cases: physicochemical
[1] = Solubility of Form I and Form II in different solvents (excess shaken 24 hours at 20° C., filtration, UV spectrometry); settings: for solubility thermodynamic at 24 h: thermodynamic from solid, read-out: Solubility in g/100 mL of solution
Experimental: An excess of product (Form I or Form II, where appropriate) was shaken with the relevant solvent during 24 hours at 20° C. After filtration, the concentration of the product in solution was determined with UV spectrometry.

[2] = Stability of the polymorphic forms; settings: compared among the polymorphic forms
[3] = Intrinsic dissolution; settings: compared with Form I
[4] = Hygroscopicity of the polymorphic forms; settings: compared among the polymorphic forms
[5] = 1-methoxy-2-propanol, 24 hours at 20° C.
[6] = 2-propanol/dichloromethane (97/3) (v/v), 24 hours at 20° C.
[7] = 2-propanone, 24 hours at 20° C.
[8] = 4-methyl-2-pentanone, 24 hours at 20° C.
[9] = acetonitrile, 24 hours at 20° C.
[10] = ethanol/water (95/5) (v/v), 24 hours at 20° C.

Row | Solubility in g/100 mL of solution [1, 5] [g/100 mL] | Solubility in g/100 mL of solution ([1]; 2-butanone, 24 hours at 20° C.) [g/100 mL] | Solubility in g/100 mL of solution [1, 6] [g/100 mL] | Solubility in g/100 mL of solution ([1]; 2-propanol, 24 hours at 20° C.) [g/100 mL] | Solubility in g/100 mL of solution [1, 7] [g/100 mL] | Solubility in g/100 mL of solution [1, 8] [g/100 mL] | Solubility in g/100 mL of solution [1, 9] [g/100 mL] | Solubility in g/100 mL of solution [1, 10] [g/100 mL] | Solubility in g/100 mL of solution ([1]; ethanol, 24 hours at 20° C.) [g/100 mL] | Solubility in g/100 mL of solution ([1]; methanol, 24 hours at 20° C.) [g/100 mL] | Solubility in g/100 mL of solution ([1]; toluene, 24 hours at 20° C.) [g/100 mL] | Compound | Stability of the polymorph form [2] | also measured
1 | 1.6 | 2.5 | 0.19 | 0.11 | 1.2 | 0.81 | 0.20 | 0.27 | 0.17 | 0.29 | 0.43 | COc1ccc2c(O[C@@H]3C[C@H]4C(=O)N[C@]5(C(=O)NS(=O)(=O)C6CC6)C[C@H]5/C=C\CCCCN(C)C(=O)[C@@H]4C3)cc(-c3nc(C(C)C)cs3)nc2c1C [Form II] | less stable but nevertheless sufficiently stable | Solubility in g/100 mL of solution ([1]; 1-butanol, 24 hours at 20° C.): 0.31 g/100 mL; Intrinsic dissolution [3]: greater than that of Form I
2 | 0.82 | 0.87 | 0.045 | 0.027 | 0.66 | 0.28 | 0.075 | 0.078 | 0.050 | 0.056 | 0.086 | COc1ccc2c(O[C@@H]3C[C@H]4C(=O)N[C@]5(C(=O)NS(=O)(=O)C6CC6)C[C@H]5/C=C\CCCCN(C)C(=O)[C@@H]4C3)cc(-c3nc(C(C)C)cs3)nc2c1C [Form I] | most stable form | Solubility in g/100 mL of solution ([1]; N,N-dimethylacetamide*, 125 mg of Form I was dissolved in 0.5 mL of N,N-dimethylacetamide): >20 g/100 mL; Solubility in g/100 mL of solution ([1]; N,N-dimethylacetamide, 24 hours at 20° C.): 16 g/100 mL; Solubility in g/100 mL of solution ([1]; acetic acid, 24 hours at 20° C.): 1.7 g/100 mL; solubility thermodynamic at 24 h ([1]; aqueous with cosolvent or surfactant or cyclodextrin, acetic acid/water (10/90) (v/v) (pH = 2.2), 24 hours at 20° C.): < 10 µg/mL; Solubility in g/100 mL of solution ([1]; dichloromethane, 24 hours at 20° C.): 8.5 g/100 mL; Solubility in g/100 mL of solution ([1]; ethyl acetate, 24 hours at 20° C.): 0.21 g/100 mL; Solubility in g/100 mL of solution ([1]; methanol/dichloromethane (50/50) (v/v), 24 hours at 20° C.): 8.3 g/100 mL; Solubility in g/100 mL of solution ([1]; tetrahydrofuran, 24 hours at 20° C.): 7.0 g/100 mL; solubility thermodynamic at 24 h ([1]; water (pH = 5.0), 24 hours at 20° C.): < 10 µg/mL; Hygroscopicity [4]: least hygroscopic form
